The source of these data is US12435060B2, “Acylamino bridged heterocyclic compound, and composition and application thereof” (BEIJING SCITECH-MQ PHARMACEUTICALS LIMITED, priority 2019, dated 2025).

One assay has as its target T1, RIPK1 (Homo sapiens, UniProt Q13546).
T1 construct: the phosphorylation of intracellular RIPK1 during the induction of programmed necrosis of HT29 cells; endogenous in cells; host or cells: HT29 cells
T1 sequence (Q13546 1-671): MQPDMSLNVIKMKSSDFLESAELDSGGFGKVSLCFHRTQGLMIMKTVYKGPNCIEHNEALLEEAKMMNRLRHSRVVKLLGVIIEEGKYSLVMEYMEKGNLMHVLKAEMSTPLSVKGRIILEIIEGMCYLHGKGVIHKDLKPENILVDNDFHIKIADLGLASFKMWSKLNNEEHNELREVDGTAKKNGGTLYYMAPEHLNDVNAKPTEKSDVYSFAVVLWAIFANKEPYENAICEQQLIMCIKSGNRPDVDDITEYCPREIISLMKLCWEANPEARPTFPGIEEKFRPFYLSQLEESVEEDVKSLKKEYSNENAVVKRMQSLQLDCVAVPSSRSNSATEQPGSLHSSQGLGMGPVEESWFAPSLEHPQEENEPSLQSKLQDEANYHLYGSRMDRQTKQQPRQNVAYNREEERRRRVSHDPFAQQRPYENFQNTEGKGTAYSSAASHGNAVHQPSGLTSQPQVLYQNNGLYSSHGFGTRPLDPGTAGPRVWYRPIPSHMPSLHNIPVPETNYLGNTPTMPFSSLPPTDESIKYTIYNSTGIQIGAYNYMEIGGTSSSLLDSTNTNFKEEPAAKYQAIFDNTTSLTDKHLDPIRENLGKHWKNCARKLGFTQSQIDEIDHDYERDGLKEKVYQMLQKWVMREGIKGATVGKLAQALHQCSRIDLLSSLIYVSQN
Description: Western blot determination of inhibition of RIPK1 phosphorylation in HT29 cells. Format: cell-based. Conditions: Z-VAD-FMK 20 μM, TNF-α 20 ng/mL, AT-406 100 nM, 7 hours, FIG. 1 and FIG. 2. How it is done: Assay Example 1. Western Blot Determination of Inhibition of Compounds on RIPK1 Phosphorylation in HT29 Cells
Western blot was used to determine the effect of the test compounds on the phosphorylation of intracellular RIPK1 during the induction of programmed necrosis of HT29 cells, verifying the effect of compounds on RIPK1 phosphorylation, and initially estimating the IC50 range of compounds for RIPK1 phosphorylation.
II. Experiment Procedure • 1. […] 40-50 ug of protein sample to be determined or pre-stained two-color protein molecular weight standard were added to each well. • 4. […]

A further assay concerns HT29 cells. Description: Inhibition of cell necrosis (CCK8 method), induced programmed necrosis of HT29 cells. It is filed as cell-based. To be noted: Homo sapiens, HT-29; rescue from necrosis induced by TNF-α 20 ng/mL, AT-406 1 μM, Z-VAD-FMK 20 μM; 16-20 hours; CCK-8, OD 450 nm. In outline: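 HT29 cells in McCOY's 5A with 10% FBS were pre-treated for 30 min with compound (9 fourfold steps, 25000 to 0.38 nM final, 0.25% DMSO). Necrosis was then induced with TNF-α 20 ng/mL, AT-406 1 μM and Z-VAD-FMK 20 μM for 16-20 h. Viability was read by CCK-8 OD450, normalized between uninduced and induced wells, and IC50 was curve-fitted.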
(In general: Tetrazolium dyes change colour on reduction, which living cells bring about.)

The term IC50 denotes the midpoint of a concentration-inhibition curve. A higher IC50 goes with weaker potency in that assay. For the molecule `Cc1ccccc1-c1ccnc(NC(=O)c2nnc(Cc3ccccc3)[nH]2)c1` [Example 2, 5-benzyl-N-(4-(o-methylphenyl)pyridin-2-yl)-4H-1,2,4-triazole-3-carboxamide], the “inhibition of RIPK1 phosphorylation” value on RIPK1 is given as “directly inhibit the phosphorylation activation of RIPK1”. The same molecule displayed a 50% inhibitory concentration (IC50) in the assay with HT29 cells of 100 to 1000 nM.
